Test results reported in US20200069714A1, “AMINOGLYCOSIDE POTENTIATION FOR TREATMENT OF PULMONARY BACTERIAL INFECTION” (Enbiotix, Inc., priority 2016, published 2020).
“Also recorded” adds a separate entry of the source.

Assays:
[1] = system: PAO1 laboratory strains of Pseudomonas aeruginosa; assay: planktonic stationary phase (PSP) time kill potentiation assay, laboratory strain; assay type: cell-based
Procedure: (§1) The following examples use an in vitro potentiation assay, termed planktonic stationary phase (PSP) time kill assay. In this assay, bacterial cultures in planktonic stationary phase are used to select for bacterial persisters. Experiments are conducted using the time-kill method (CLSI M26), to evaluate bacterial strains, varying the concentration of aminoglycoside and potentiator. Cultures of persisters are generated by growing the bacteria in lysogeny broth (LB) medium for 16 hours. After 4 hr of exposure to the aminoglycoside plus potentiator combination in M9 minimal medium, cells are enumerated on LB plates.
Tobramycin has been measured at about 50 to 90 μg/ml of tobramycin in the lung epithelial lining after delivery of a 300 mg dose of tobramycin to cystic fibrosis patients by nebulizer. Ruddy J. et al., Sputum Tobramvcin Concentrations in Cystic Fibrosis Patients with Repeated Administration of Inhaled Tobramycin, J. of Aerosol Med. and Pulmon. Drug Del. 26(2):69-75 (2013).

[2] = cited from earlier work
[3] = potentiation in artificial sputum media; assay type: cell-based; settings: 15 mM fumarate; with and without amino acids
Procedure: In the presence of artificial sputum media with and without amino acids, some tolerance is observed, but the potentiation of tobramycin with 15 mM fumarate remains an improvement of several logs (FIG. 9).

[4] = system: P. aeruginosa mucoid and non-mucoid CF clinical isolates; assay: colony biofilm assay with CF clinical isolates; assay type: cell-based; settings: fumarate with tobramycin
Procedure: (§2) The potentiation effect for tobramycin was tested in two biofilm assays: colony biofilm assay and 96-well plate biofilm assay.

naïve bacterial biofilm [5] = assay: colony biofilm assay; assay type: cell-based; settings: 15 mM fumarate, naïve cultures
Procedure: as §2

[6] = potentiation in the presence of CF patient sputum; assay type: cell-based
[7] = system: Human Airway Epithelial cells infected with Pseudomonas; settings: in combination with tobramycin
Procedure: The impact of fumarate on Human Airway Epithelial cells was tested using an LDH assay. See Moreau-Marquis S, Tobramycin and FDA-Approved Iron Chelators Eliminate Pseudomonas aeruginosa Biofilms on Cystic Fibrosis Cells, Am. J. Respir. Cell Mol. Biol. Vol. 41, 305-313 (2009). LDH levels are measured in the medium (Apical and Basolateral fluids) and inside cells. Cytotoxicity can be expressed as: [LDHAP-BL/(LDHPAP-BL+LDHcells)]×100. […] Results are normalized to PAO1 untreated for 100% cytotoxicity. Significance (*) is between strain plus tobramycin and strain plus tobramycin with potentiator.

naïve bacterial biofilm [8] = assay: 96-well plate biofilm assay; assay type: cell-based; settings: 15 mM fumarate, naïve cultures
Procedure: as §2

[9] = system: tobramycin-sensitive COPD clinical isolates; assay: PSP potentiation assay with COPD clinical isolates; assay type: cell-based, Pseudomonas aeruginosa; settings: 15 mM fumarate; early or late stage COPD isolates
PAO1 strain = assay: potentiation assay in the presence of tobramycin and azithromycin; assay type: cell-based, Pseudomonas aeruginosa; settings: 15 mM fumarate
Procedure: as §1
The potentiation effect was tested in the presence of both tobramycin and azithromycin. […] Results are for PAO1 strain.

SMILES | tobramycin concentration at which maximum bactericidal activity was observed ([1]; with 15 mM fumarate (Met1)) [µg/mL] | mean tobramycin concentration in expectorated sputum ([2]; 10 minutes after delivery of 300 mg by nebulizer, CF patients) | tobramycin concentration in the lung epithelial fluid (induced sputum), estimated ([2]; after 300 mg delivered by nebulizer) [µg/g] | potentiation of tobramycin in artificial sputum media [3] | effect on P. aeruginosa in colony biofilms from CF clinical isolates [4] | potentiation of tobramycin in colony biofilm assay (naïve bacterial biofilm [5]) | potentiation of tobramycin sensitivity in the persister assay ([1]; 15 mM fumarate, PAO1, 4 hr exposure in M9 minimal medium) | potentiation in the presence of CF sputum [6] [logs] | fumarate concentration with potential to decrease airway inflammation [7] | potentiation of tobramycin in 96-well plate biofilm assay (naïve bacterial biofilm [8]) | potentiation of tobramycin action against COPD strains [9] | potentiation of tobramycin in the presence of azithromycin (PAO1 strain)
NC[C@H]1O[C@H](O[C@H]2[C@H](O)[C@@H](O[C@H]3O[C@H](CO)[C@@H](O)[C@H](N)[C@H]3O)[C@H](N)C[C@@H]2N)[C@H](N)C[C@@H]1O [tobramycin] | 16 | 1,237 μg/g of sputum | ~128 |  |  |  |  |  |  |  |  | 
O=C(O)/C=C/C(=O)O [fumarate] |  |  |  | several logs | eradication of P. aeruginosa | potentiates tobramycin action; also recorded: shows potentiation of tobramycin | over 5 logs | 3 | above 7.5 mM | potentiates tobramycin action; also recorded: shows potentiation of tobramycin | effective to potentiate tobramycin action against all COPD strains tested | over 3 logs
